Results on 33 compounds are retold here after patent publication US10799518B2, “Use of agonists of formyl peptide receptor 2 for treating dermatological diseases” (Allergan, Inc., priority 2013, dated 2020).

One assay has as its target human FPR2 receptor (Homo sapiens (Human), UniProt P25090). The experiment in a line: FLIPR Ca+2 response in HEK-Gα16 cells stably expressing the human FPR2 receptor. It counts as cell-based. The settings on record: Table 4; for FPR2 (% eff): value in parentheses, given mostly as fraction; for EC50: HEK-Gα16 human FPR2, FLIPR. As for the experimental part:
HEK-Gα16 cells stably expressing the human FPR2 receptor was utilized. Cells were plated into 384-well poly-D-lysine coated plates at a density of 18,000 cells per well one day prior to use. The growth media was DMEM medium supplemented with 10% fetal bovine serum (FBS), 1% antibiotic-antimycotic, 50 μg/ml hygromycin, and 400 μg/ml geneticin. On the day of the experiment, the cells were washed twice with Hank's Balanced Salt Solution supplemented with 20 mM HEPES (HBSS/hepes buffer). The cells were then dye loaded with 2 μM Fluo-4 diluted in the HBSS/Hepes buffer and incubated at 37° C. for 40 minutes. Extracellular dye was removed by washing the cell plates four times prior to placing the plates in the FLIPR (Fluorometric Imaging Plate Reader, Molecular Devices). Ligands were diluted in HBSS/Hepes buffer and prepared in 384-well microplates. Data for Ca^+2 responses were obtained in relative fluorescence units.

The next assay has as its target FPRL-1 (Homo sapiens (Human), UniProt P25090). The experiment in a line: FPRL-1 Ga16-CHO EC50 (efficacy). The format is cell-based. As to conditions: Table 3; value in parentheses.
Assay [1] concerns LL-37-induced inflammation in mouse ears. The experiment in a line: LL37-induced model of rosacea in mice (ear thickness). The format is in vivo. As to conditions: topical to ears; p<0.05 vs. vehicle; FIG. 2. As for the experimental part: LL37-Induced Model of Rosacea in Mice:
Prior to dosing, animals are lightly anaesthetized with isofluorane and baseline right and left ear thickness measurements are made with a digital caliper (Mitutoyo 293-340). At t=−1 hrs, animals are lightly anaesthetized with isoflurane to allow topical application (dorsal side) of 10 μL of FPR2 agonist formulated in a vehicle consisting of PBS:ethanol (50:50), or vehicle control to both ears. At t=0 hr, mice are re-anaesthetized. Following ear thickness measurements, 20 uL of LL-37 (100 μM) is injected into the right ear, while PBS is injected into the left ear. Additional ear thickness measurements are taken at t=3 and 6 hours. After the last time point, mice are euthanized by CO2 inhalation and ears collected for additional analyses.

Chain of FPRL-1 (P25090 whole entry): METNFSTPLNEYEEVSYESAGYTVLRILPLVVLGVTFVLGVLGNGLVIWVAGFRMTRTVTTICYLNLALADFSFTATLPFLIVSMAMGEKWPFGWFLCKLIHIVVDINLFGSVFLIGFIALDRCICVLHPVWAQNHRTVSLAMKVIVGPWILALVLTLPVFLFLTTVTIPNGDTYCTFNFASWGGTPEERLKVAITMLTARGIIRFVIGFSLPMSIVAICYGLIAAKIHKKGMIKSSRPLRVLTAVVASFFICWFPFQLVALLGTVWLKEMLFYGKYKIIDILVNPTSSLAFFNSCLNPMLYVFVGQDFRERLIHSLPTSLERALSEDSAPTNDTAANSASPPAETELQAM
Chain of human FPR2 receptor (P25090 whole entry): as above

Regarding `CCOP(=O)(CNC(=O)[C@H](CC(C)C)NC(=O)Nc1ccc(SC)cc1)OCC` [Compound 138], the FPR2 (% eff) on human FPR2 receptor is 91%.
`CCC1(c2ccccc2)NC(=O)N(CC(=O)Nc2ccc(Br)cc2)C1=O` (centres unmarked) [N-(4-bromophenyl)-2-(4-ethyl-2,5-dioxo-4-phenylimidazolidin-1-yl)acetamide]: the “FPRL-1 Ga16-CHO (efficacy)” value on FPRL-1 amounted to 0.83.
For orientation: EC50 means the concentration needed to bring the measured effect to its halfway point. Read a low EC50 as greater potency. As for `CSc1ccc(NC(=O)C2C(C(=O)O)C3C=CC2C32CC2)cc1` (centres unmarked) [Compound 31, 3-{[4-(methylsulfanyl)phenyl]carbamoyl} spiro[bicyclo[2.2.1]heptane-7,1′-cyclopropane]-5-ene-2-carboxylic acid], on human FPR2 receptor, a half-maximal response (EC50) required 14 nM and the FPR2 (% eff) was 96%.
For `O=C(O)[C@@H]1C2CCC([C@@H]1C(=O)Nc1ccc(Br)cc1)C21CC1` (relative stereo) [Compound 14, rel-(2R,3 S)-3-[(4-brornophenyl)carbarnoyl]spiro [bicyclo[2.2.1]heptane-7,1′-cyclopropane]-2-carboxylic acid] the same measures were 4 nM and 90%.
In the case of `CCOP(=O)(O)CNC(=O)[C@@H](NC(=O)Nc1ccc(Br)cc1)[C@@H](C)CC` [Compound 115, ethyl hydrogen ({[(2S,3S)-2-{[(4-bromophenyl)carbamoyl]amino}-3-methylpentanoyl]amino}methyl)phosphonate], on human FPR2 receptor, the FPR2 (% eff) is 88%.
With `CC(C)C[C@H](NC(=O)Nc1ccc(Br)cc1)C(=O)NCC(=O)O` [Compound 8, {[(2S)-2-{[(4-bromophenyl)carbamoyl]amino}-4-methylpentanoyl]amino} acetic acid], in assay [1], the “inflammation induced by LL-37 in mouse ears” value is recorded as “Anti-inflammatory activity”.
With `CCOP(=O)(CCNC(=O)CC1(C(C)C)NC(=O)N(NC(=O)Nc2ccc(Br)cc2)C1=O)OCC` (centres unmarked) [Compound 152, diethyl [2-({[1-{[(4-bromophenyl)carbamoyl]amino}-2,5-dioxo-4-(propan-2-yl)imidazolidin-4-yl]acetyl}amino)ethyl] phosphonate], at human FPR2 receptor, the FPR2 (% eff) came to 100%.
On to `CC(C)C[C@H](NC(=O)Nc1ccc(C(F)(F)F)cc1)C(=O)NCC(=O)O` [Compound 124, {[(2S)-4-methyl-2-({[4-(trifluoromethyl)phenyl]carbamoyl}amino)pentanoyl]amino}acetic acid], for which the FPR2 (% eff) on human FPR2 receptor is 100%.
At human FPR2 receptor, `CCOP(=O)(CCNC(=O)[C@H](CC(C)C)NC(=O)Nc1ccc(Br)cc1)OCC` [Compound 119, diethyl (2-{[(2S)-2-{[(4-bromophenyl)carbamoyl]amino}-4-methylpentanoyl]amino}ethyl) phosphonate] gave an EC50 of 16.1 nM.
Turning to `CC1(C)NC(=O)N(CC(=O)Nc2ccc(Br)cc2)C1=O` [N-(4-bromophenyl)-2-(4,4-dimethyl-2,5-dioxoimidazolidin-1-yl)acetamide], the “FPRL-1 Ga16-CHO (efficacy)” value at FPRL-1 was found to be 0.94.
In the case of `CCOP(=O)(O)CNC(=O)[C@H](Cc1ccccc1)NC(=O)Nc1ccc(Br)cc1` [Compound 126, ethyl hydrogen ({[(2S)-2-{[(4-bromophenyl)carbamoyl]amino}-3-phenylpropanoyl]amino}methyl)phosphonate], at human FPR2 receptor, the FPR2 (% eff) was determined as 100%.
Consider `CC(C)C[C@H](NC(=O)Nc1ccc(Br)cc1)C(=O)N[C@@H](C)C(=O)O` [Compound 90, (2S)-2-{[(2S)-2-{[(4-bromophenyl)carbamoyl]amino}-4-methylpentanoyl]amino} propanoic acid], for which the FPR2 (% eff) at human FPR2 receptor was found to be 100%.
Regarding `CCC1(CC)NC(=O)N(CC(=O)Nc2ccc(F)cc2)C1=O` [2-(4,4-diethyl-2,5-dioxoimidazolidin-1-yl)-N-(4-fluorophenyl)acetamide], the “FPRL-1 Ga16-CHO (efficacy)” value at FPRL-1 was 0.67.
The same measure, in the same setting: as for `CCC1(CC)NC(=O)N(CC(=O)Nc2ccc(Br)cc2)C1=O` [N-(4-bromophenyl)-2-(4,4-diethyl-2,5-dioxoimidazolidin-1-yl)acetamide], the figure is 0.98; as for `O=C(CN1C(=O)C2CC=CCC2C1=O)Nc1ccc(Br)cc1` (centres unmarked) [N-(4-bromophenyl)-1,3,3a,4,7,7a-hexahydro-1,3-dioxo-2H-isoindole-2-acetamide], 0.98.
With `CC(C)C[C@H](NC(=O)Nc1ccc(Br)cc1F)C(=O)NCC(=O)O` [Compound 7, {[(2S)-2-{[(4-bromo-2-fluorophenyl)carbamoyl]amino}-4-methylpentanoyl]amino} acetic acid], the “inflammation induced by LL-37 in mouse ears” value in assay [1] is “Anti-inflammatory activity”.
With `CCOP(=O)(O)CNC(=O)[C@H](CC(C)C)NC(=O)Nc1ccc(Br)cc1` [Compound 105, ethyl hydrogen ({[(2S)-2-{[(4-bromophenyl)carbamoyl]amino}-4-methylpentanoyl]amino}methyl)phosphonate], on human FPR2 receptor, the FPR2 (% eff) is 88%.
As for `CCC[C@H](NC(=O)Nc1ccc(Br)cc1)C(=O)NCP(=O)(OCC)OCC` [Compound 117, diethyl (1[(2S)-2-1[(4-bromophenyl)carbamoyl]amino}pentanoyl]amino}methyl) phosphonate], the FPR2 (% eff) at human FPR2 receptor is 100%.
With `CCCC1(CCC)NC(=O)N(CC(=O)Nc2ccc(Br)cc2)C1=O` [N-(4-bromophenyl)-2-(2,5-dioxo-4,4-dipropylimidazolidin-1-yl)acetamide], at FPRL-1, the “FPRL-1 Ga16-CHO (efficacy)” value is 0.98.
As to `CCOP(=O)(CNC(=O)[C@H](CC(C)C)NC(=O)Nc1ccc(C(F)(F)F)cc1)OCC` [Compound 134, diethyl ({[(2S)-4-methyl-2-({[4-(trifluoromethyl)phenyl]carbamoyl}amino)pentanoyl]amino}methyl)phosphonate], the FPR2 (% eff) on human FPR2 receptor came to 97%.
As for `CCOP(=O)(CNC(=O)[C@H](Cc1ccccc1)NC(=O)Nc1ccc(Br)cc1)OCC` [Compound 118, diethyl ({[(2S)-2-{[(4-bromophenyl)carbamoyl]amino}-3-phenylpropanoyl]amino}methyl)phosphonate], the FPR2 (% eff) on human FPR2 receptor was 93%.
Consider `CCOP(=O)(O)CNC(=O)[C@H](CC(C)C)NC(=O)Nc1ccc(C(F)(F)F)cc1` [Compound 135, ethyl hydrogen ({[(2S)-4-methyl-2-({[4-(trifluoromethyl)phenyl]carbamoyl}amino)pentanoyl]amino}methyl)phosphonate], for which, at human FPR2 receptor, the FPR2 (% eff) is 91%.
In the case of `CC1(C2CC2)NC(=O)N(CC(=O)Nc2ccc(Br)cc2)C1=O` (centres unmarked) [N-(4-bromophenyl)-2-(4-cyclopropyl-4-methyl-2,5-dioxoimidazolidin-1-yl)acetamide], the “FPRL-1 Ga16-CHO (efficacy)” value on FPRL-1 came to 0.84.
For the compound `CCC1(CC)NC(=O)N(CC(=O)Nc2ccc(Cl)cc2)C1=O` [N-(4-chlorophenyl)-2-(4,4-diethyl-2,5-dioxoimidazolidin-l-yl)acetamide], the “FPRL-1 Ga16-CHO (efficacy)” value on FPRL-1 is 0.79.
Turning to `O=C(CN1C(=O)C2C3C=CC(C3)C2C1=O)Nc1ccc(Br)cc1` (centres unmarked) [N-(4-bromophenyl)-1,3,3a,4,7,7a-hexahydro-1,3-dioxo-4,7-methano-2H-isoindole-2-acetamide], the “FPRL-1 Ga16-CHO (efficacy)” value on FPRL-1 is listed as 0.90.
As for `CCC[C@H](NC(=O)Nc1ccc(Br)cc1)C(=O)NCP(=O)(O)OCC` [Compound 123, ethyl hydrogen ({[(2S)-2-{[(4-bromophenyl)carbamoyl]amino}pentanoyl]amino}methyl) phosphonate], the FPR2 (% eff) on human FPR2 receptor was 96%.
`O=C(CN1C(=O)NC2(CCCCCC2)C1=O)Nc1ccc(Br)cc1` [N-(4-bromophenyl)-2-(2,4-dioxo-1,3-diazaspiro[4.6]undec-3-yl)acetamide]: the “FPRL-1 Ga16-CHO (efficacy)” value on FPRL-1 worked out at 0.96.
On the same count and under the same terms, under `CC1(CCc2ccccc2)NC(=O)N(CC(=O)Nc2ccc(Br)cc2)C1=O` (centres unmarked) [N-(4-bromophenyl)-2-[4-methyl-2,5-dioxo-4-(2-phenylethyl)imidazolidin-1-yl]acetamide] stands 0.88.
Same read-out and setting: under `O=C(CN1C(=O)NC2(CCCC2)C1=O)Nc1ccc(Br)cc1` [N-(4-bromophenyl)-2-(2,4-dioxo-1,3-diazaspiro[4.4]non-3-yl)acetamide] stands 0.96.
Regarding `CC(C)C[C@H](NC(=O)Nc1ccc(Br)cc1)C(=O)NCC(O)CO` (stereo partly drawn) [Compound 95, (2S)-2-{[(4-bromophenyl)carbamoyl]amino}-N-(2,3-dihydroxypropyl)-4-methylpentanamide], the FPR2 (% eff) at human FPR2 receptor is 98%.
`CCC1(C)NC(=O)N(CC(=O)Nc2ccc(Br)cc2)C1=O` (centres unmarked) [N-(4-bromophenyl)-2-(4-ethyl-4-methyl-2,5-dioxoimidazolidin-1-yl)acetamide]: the “FPRL-1 Ga16-CHO (efficacy)” value on FPRL-1 was found to be 1.0.
With `CC(C)C[C@H](NC(=O)Nc1ccc(Br)cc1)C(=O)NCc1cc(O)no1` [Compound 116, (2S)-2-{[(4-bromophenyl)carbamoyl]amino}-N-[(3-hydroxy-1,2-oxazol-5 - yl)methyl]-4-methylpentanamide], the FPR2 (% eff) at human FPR2 receptor was determined as 100%.
For the compound `O=C(CN1C(=O)NC2(CCCCC2)C1=O)Nc1ccc(Br)cc1` [N-(4-bromophenyl)-2-(2,4-dioxo-1,3-diazaspiro[4.5]dec-3-yl)acetamide], the “FPRL-1 Ga16-CHO (efficacy)” value on FPRL-1 stood at 0.89.
